Measurements published in patent US12590067B2, “Herbicidal cyclohexanedione derivatives” (SYNGENTA CROP PROTECTION AG, priority 2019, dated 2026).

Columns and labels:
Experiment in all cases: Glasshouse herbicidal test, pre- and post-emergence, percentage damage to the plant
Format in all cases: in vivo
[1] = system: Echinochloa crus-galli (ECHCG); details: 250 g/h, evaluated after 13 days; for ECHCG POST percentage damage caused to the plant (five-point scale): post-emergence; for ECHCG PRE percentage damage caused to the plant (five-point scale): pre-emergence
Experimental: (§1) Seeds of a variety of test species are sown in standard soil in pots (Lolium perenne (LOLPE), Setaria faberi (SETFA), Alopecurus myosuroides (ALOMY), Echinochloa crus-galli (ECHCG), Avena fatua (AVEFA)). After cultivation for one day (pre-emergence) or after 8 days cultivation (post-emergence) under controlled conditions in a glasshouse (at 24/16° C., day/night; 14 hours light; 65% humidity), the plants are sprayed with an aqueous spray solution derived from the formulation of the technical active ingredient in acetone/water (50:50) solution containing 0.5% Tween 20 (polyoxyethelyene sorbitan monolaurate, CAS RN 9005-64-5). Compounds are applied at 250 g/h. The test plants are then grown in a glasshouse under controlled conditions in a glasshouse (at 24/16° C., day/night; 14 hours light; 65% humidity) and watered twice daily. After 13 days for pre and post-emergence, the test is evaluated for the percentage damage caused to the plant. The biological activities are shown in the following table on a five-point scale (5=80-100%; 4=60-79%; 3=40-59%; 2=20-39%; 1=0-19%).

Lolium perenne (LOLPE) = details: 250 g/h, evaluated after 13 days; for LOLPE POST percentage damage caused to the plant (five-point scale): post-emergence; for LOLPE PRE percentage damage caused to the plant (five-point scale): pre-emergence
Experimental: as §1

Setaria faberi (SETFA) = details: 250 g/h, evaluated after 13 days; for SETFA POST percentage damage caused to the plant (five-point scale): post-emergence; for SETFA PRE percentage damage caused to the plant (five-point scale): pre-emergence
Experimental: as §1

[2] = system: Alopecurus myosuroides (ALOMY); details: 250 g/h, evaluated after 13 days; for ALOMY POST percentage damage caused to the plant (five-point scale): post-emergence; for ALOMY PRE percentage damage caused to the plant (five-point scale): pre-emergence
Experimental: as §1

Avena fatua (AVEFA) = details: 250 g/h, evaluated after 13 days; for AVEFA POST percentage damage caused to the plant (five-point scale): post-emergence; for AVEFA PRE percentage damage caused to the plant (five-point scale): pre-emergence
Experimental: as §1

Structure (SMILES) | ECHCG POST percentage damage caused to the plant (five-point scale) [1] | ECHCG PRE percentage damage caused to the plant (five-point scale) [1] | LOLPE POST percentage damage caused to the plant (five-point scale) (Lolium perenne (LOLPE)) | LOLPE PRE percentage damage caused to the plant (five-point scale) (Lolium perenne (LOLPE)) | SETFA POST percentage damage caused to the plant (five-point scale) (Setaria faberi (SETFA)) | SETFA PRE percentage damage caused to the plant (five-point scale) (Setaria faberi (SETFA)) | ALOMY POST percentage damage caused to the plant (five-point scale) [2] | ALOMY PRE percentage damage caused to the plant (five-point scale) [2] | AVEFA POST percentage damage caused to the plant (five-point scale) (Avena fatua (AVEFA)) | AVEFA PRE percentage damage caused to the plant (five-point scale) (Avena fatua (AVEFA))
Cc1cc(-c2ccc(C#N)cn2)cc(Cl)c1C1C(=O)CC2(CCN(C(=O)C3CC3)CC2)CC1=O [Compound A57] | 5 (5=80-100%) | 5 (5=80-100%) | 5 (5=80-100%) | 5 (5=80-100%) | 5 (5=80-100%) | 5 (5=80-100%) | 5 (5=80-100%) | 5 (5=80-100%) | 5 (5=80-100%) | 5 (5=80-100%)
CC#Cc1cc(Cl)c(C2C(=O)CC3(CCN(C(=O)C4CC4)CC3)CC2=O)c(OC)c1 [Compound A8] | 5 (5=80-100%) | 5 (5=80-100%) | 5 (5=80-100%) | 5 (5=80-100%) | 5 (5=80-100%) | 5 (5=80-100%) | 5 (5=80-100%) | 5 (5=80-100%) | 5 (5=80-100%) | 5 (5=80-100%)
CC#Cc1cc(Cl)c(C2C(=O)CC3(CCN(C(=O)C(F)F)CC3)CC2=O)c(Cl)c1 [Compound A16] | 5 (5=80-100%) | 5 (5=80-100%) | 5 (5=80-100%) | 5 (5=80-100%) | 5 (5=80-100%) | 5 (5=80-100%) | 5 (5=80-100%) | 5 (5=80-100%) | 5 (5=80-100%) | 5 (5=80-100%)
CC#Cc1cc(Cl)c(C2C(=O)CC3(CCN(C(=O)CC#N)CC3)CC2=O)c(OC)c1 [Compound A12] | 5 (5=80-100%) | 5 (5=80-100%) | 5 (5=80-100%) | 5 (5=80-100%) | 5 (5=80-100%) | 5 (5=80-100%) | 5 (5=80-100%) | 5 (5=80-100%) | 5 (5=80-100%) | 5 (5=80-100%)
CC#Cc1cc(C)c(C2C(=O)CC3(CCN(C(C)=O)CC3)CC2=O)c(Cl)c1 [Compound A55] | 5 (5=80-100%) | 5 (5=80-100%) | 5 (5=80-100%) | 5 (5=80-100%) | 5 (5=80-100%) | 5 (5=80-100%) | 5 (5=80-100%) | 5 (5=80-100%) | 5 (5=80-100%) | 5 (5=80-100%)
CCc1cc(-c2ccc(C#N)cn2)cc(C)c1C1C(=O)CC2(CCN(C(=O)C3CC3)CC2)CC1=O [Compound A51, 6-[4-[3-(cyclopropanecarbonyl)-8,10-dioxo-3-azaspiro[5.5]undecan-9-yl]-3-ethyl-5-methyl-phenyl]pyridine-3-carbonitrile] | 5 (5=80-100%) | 4 (4=60-79%) | 5 (5=80-100%) | 5 (5=80-100%) | 5 (5=80-100%) | 5 (5=80-100%) | 5 (5=80-100%) | 5 (5=80-100%) | 5 (5=80-100%) | 5 (5=80-100%)
CC(=O)N1CCC2(CC1)CC(=O)C(c1c(C)cc(-c3ccc(C#N)cn3)cc1Cl)C(=O)C2 [Compound A56] | 5 (5=80-100%) | 4 (4=60-79%) | 5 (5=80-100%) | 5 (5=80-100%) | 5 (5=80-100%) | 5 (5=80-100%) | 5 (5=80-100%) | 3 (3=40-59%) | 5 (5=80-100%) | 3 (3=40-59%)
COc1cc(-c2ccc(C#N)cn2)cc(Cl)c1C1C(=O)CC2(CCN(C(=O)C3CC3)CC2)CC1=O [Compound A35] | 5 (5=80-100%) | 5 (5=80-100%) | 5 (5=80-100%) | 5 (5=80-100%) | 5 (5=80-100%) | 5 (5=80-100%) | 5 (5=80-100%) | 5 (5=80-100%) | 5 (5=80-100%) | 5 (5=80-100%)
CC#Cc1cc(Cl)c(C2C(=O)CC3(CCN(C(=O)COC)CC3)CC2=O)c(OC)c1 [Compound A5] | 5 (5=80-100%) | 5 (5=80-100%) | 5 (5=80-100%) | 5 (5=80-100%) | 5 (5=80-100%) | 5 (5=80-100%) | 5 (5=80-100%) | 5 (5=80-100%) | 5 (5=80-100%) | 5 (5=80-100%)
CCc1cc(-c2ccc(C#N)cn2)cc(Cl)c1C1C(=O)CC2(CCN(C(=O)C3CC3)CC2)CC1=O [Compound A53] | 5 (5=80-100%) | 5 (5=80-100%) | 5 (5=80-100%) | 5 (5=80-100%) | 5 (5=80-100%) | 5 (5=80-100%) | 5 (5=80-100%) | 5 (5=80-100%) | 5 (5=80-100%) | 5 (5=80-100%)
CC#Cc1cc(Cl)c(C2C(=O)CC3(CCN(C(=O)NC(=O)c4ccccn4)CC3)CC2=O)c(Cl)c1 [Compound A17] | 5 (5=80-100%) | 3 (3=40-59%) | 5 (5=80-100%) | 2 (2=20-39%) | 5 (5=80-100%) | 4 (4=60-79%) | 2 (2=20-39%) | 2 (2=20-39%) | 5 (5=80-100%) | 2 (2=20-39%)
CC#Cc1cc(Cl)c(C2C(=O)CC3(CCN(C(C)=O)CC3)CC2=O)c(Cl)c1 [Compound A14] | 5 (5=80-100%) | 5 (5=80-100%) | 5 (5=80-100%) | 5 (5=80-100%) | 5 (5=80-100%) | 5 (5=80-100%) | 5 (5=80-100%) | 5 (5=80-100%) | 5 (5=80-100%) | 5 (5=80-100%)
